Measured values taken from US20240299698A1, “PREVENTION AND TREATMENT OF POST-OPERATIVE COGNITIVE DYSFUNCTION (POCD)” (Noetix Pharma LLC, priority 2022, published 2024).

Legend:
[1] = healthy subjects; cited from earlier work
[2] = Macias-Barragan J, et al.; cited from earlier work
mouse model of (POCD) [3] = experiment: Fear conditioning context testing in laparotomy mouse model of POCD; assay type: in vivo, Male C57BI/6 mice
Description: (§1) To induce POCD, mice were anesthetized with isoflurane and maintained at a surgical plane of anesthesia (2-2.5%). The abdomen was shaved and cleaned/disinfected with both betadine and ethanol (70%). A 1.5 cm vertical incision was made along the midline of the abdomen, perforating the skin and the peritoneal cavity. A sterile blunt probe was inserted into the cavity, and the abdominal viscera and musculature were manipulated for five minutes. Abdominal muscles and skin were sutured, polysporin and topical lidocaine were applied to the incision site, and buprenorphine (0.1 mg/kg s.c.) was administered. Animals were placed into a clean, pre-warmed home cage for recovery and housed singly thereafter.
Fear conditioning is a commonly used test of associative learning where a […] stimulus is paired with an aversive unconditioned stimulus, resulting in a freezing response that can be subsequently quantified. Training occurred on the day prior to surgery, context testing on PSD1 (i.e., 2 days after training) and PSD3 (i.e., 4 days after training), and cued testing on PSD3 at a time point three hours after the final context test. For training and context testing, mice were placed in an operant chamber (Med Associates). For cued testing, mice were placed into a novel arena with novel external environment and scent.
Fear conditioning training was performed to generate an association between a neutral “conditional” stimulus (80 dB tone) with an aversive “unconditional” stimulus (0.4 mA shock). Before training, the system was tested to confirm proper operation of the shock and tone. During training, the testing environment was kept quiet and well controlled. Temperature and humidity levels were kept constant and the experimenter was not visible from the operant chamber, which was cleaned between animals. The training protocol was as follows: 1. Each mouse was habituated to the testing room for 20 minutes. 2. Video recording was initiated and the animal's ID card was recorded. 3. Each mouse was placed into the operant chamber and the training protocol was implemented as follows: a. 120 seconds; no stimuli (habituation to the chamber); b. 20 seconds, tone presentation (80 dB); c. 20 seconds, no stimuli (trace delay period); d. 2 seconds, foot shock (0.4 mA); e. 90 seconds, no stimuli (intertrial interval); f. repeat steps a-d followed by a final 30 second no stimuli period. 4. The mouse was returned to its home cage.
The purpose of context testing is to evaluate context memory for an aversive environment. Materials for this process included the operant testing chamber, a video recorder, a stopwatch, and data recording sheets. During the testing process the testing environment was kept quiet and well controlled with constant temperature and humidity levels. It was ensured that the experimenter was not visible from the operant chamber. The chamber was cleaned between animals.
Context testing was performed as follows: 1. The mouse was habituated to the testing room for 15 minutes. 2. Video recording was initiated and the animal's ID card recorded. 3. The mouse was placed in the operation chamber and allow ed 270 seconds exploration time. 4. The mouse was returned to its home cage.
Fear conditioning context testing was performed on PSD1 and PSD3, with exposure to the contextual environment presented at the equivalent time of day to the training period in the same arena as was used for training. On PSD3, following the final contextual testing, the cued testing phase was performed. […]

[4] = Body weight monitoring after surgery; assay type: in vivo, Male C57BI/6 mice; conditions: Acute and Chronic dose groups vs controls
Experimental: Mice were weighed 24 hours after arrival, weekly prior to the initiation of pirfenidone administration, and then daily throughout the remainder of the study. Post-induction, animals were assessed daily to monitor body condition, pain response, and general recovery parameters. • Test System: Male C57BI/6 mice • Number of Animals/Group: 12 animals per group (total of 48 mice) • Age: Cohort 1: 12 weeks at arrival • Cohort 2: 10 weeks at arrival • Model Induction: Performed at 14 weeks of age • Weight: 31.6±0.42 SEM g at time of surgery • Allocation: Animals were pseudo-randomly assigned to treatment groups balanced for weight • Health inspection: A health inspection was performed by a clinical veterinarian prior to the commencement of the study.
Mice were weighed 24 hours after arrival, weekly prior to the initiation of Test Article administration, and then daily throughout the remainder of the study.

mouse model of (POCD) [5] = experiment: Novel object recognition testing in laparotomy mouse model of POCD; assay type: in vivo, Male C57BI/6 mice; conditions: for novel object preference, 24-hour (long term) testing: PSD6
Description: as §1
Novel object recognition (NOR) is a tool used to assess the ability of mice to differentiate between familiar and novel objects (i.e., recognition memory). The paradigm relies on the tendency of rodents to interact more with a novel object than a familiar one. In this task, acclimation to the test arena was provided on the day prior to training (PSD4) and the initial test trial (short-term recall), presented one hour following training on PSD5. The second test trial (long-term recall) was performed 24 hours later (PSD6). Object recognition may be determined through evaluation of the percent time spent exploring a novel object relative to the total time spent exploring both novel and familiar objects; normal animals will spend more time exploring a novel object. If the exploration of both objects is the same, this behavior can be a sign of a recognition memory deficit.
(§2) The acclimation process was as follows: 1. The animal was brought into the testing room in a transfer cage. 2. Video recording was begun and the animal's ID card was recorded. 3. The mouse was placed in the center of the arena and allowed to explore freely for 5 minutes. 4. The mouse was returned to its home cage.
as §2, with “paired object training” for “acclimation”, “10” for “5”
(§3) The novel object (1 hour) test was performed as follows: 1. The arena was prepared with one original object (block) and one novel object (ball) present. 2. The animal was brought into the testing room in a transfer cage. 3. Video recording was begun and the animal's ID card was recorded. 4. The mouse was placed in the center of the arena and allowed to explore for 10 minutes. 5. The mouse was returned to its home cage.
as §3, with “(24” for “(1”, “(dome)” for “(ball)”

## Cc1ccc(=O)n(-c2ccccc2)c1 [pirfenidone, 5-methyl-1-phenyl-2-(1H)-pyridone]
[1]
  mean terminal half-life: approximately 3 hours
[2]
  crossing of the blood brain barrier: can cross the blood brain barrier
Mouse model of (POCD) [3]; Acute (400 mg/kg p.o. single presurgical dose), p=0.009, paired t-test
  time spent freezing, contextual test, within-group PSD3 compared to PSD1: less time freezing
Mouse model of (POCD) [3]; Chronic (400 mg/kg initial; 200 mg/kg p.o. 1x/day), p=0.942, paired t-test
  time spent freezing, contextual test, within-group PSD3 compared to PSD1: no difference between test presentation days
Mouse model of (POCD) [3]; PSD1, Acute (400 mg/kg p.o. single presurgical dose) compared to Chronic pirfenidone animals, p=0.027, LSD post-hoc
  time spent freezing, contextual test: increased freezing
Mouse model of (POCD) [3]; PSD3, Acute (400 mg/kg p.o. single presurgical dose) vs Normal Controls
  time spent freezing, contextual test: performed equivalently to Normal Controls
Mouse model of (POCD) [3]; PSD3, Acute and Chronic groups and controls, p=0.671, One-way ANOVA
  time spent freezing, contextual test, between groups: no statistical difference between groups
[4]
  weight loss at 24 hours post-surgery: did not differ between groups
Mouse model of (POCD) [5]; Acute, p=0.762, paired t-test (statistically equivalent)
  preference index, within-group 1-hour vs 24-hour: retained memory for the familiar object
Mouse model of (POCD) [5]; Chronic, p=0.828, paired t-test (statistically equivalent)
  preference index, within-group 1-hour vs 24-hour: retained memory for the familiar object
Mouse model of (POCD) [5]; PSD5, Acute, p=0.01, within group paired t-test
  total object exploration time, 1 hour test compared with training: decrease in total time spent interacting with objects
Mouse model of (POCD) [5]; PSD5, Chronic, p=0.04, within group paired t-test
  total object exploration time, 1 hour test compared with training: decrease in total time spent interacting with objects
Mouse model of (POCD) [5]; PSD5, all treatment groups, p=0.376, one-way ANOVA
  novel object preference, 1-hour (short term) testing, between groups: no main effect for treatment
Mouse model of (POCD) [5]; Acute vs Disease Controls, p=0.08, LSD post-hoc
  novel object preference, 24-hour (long term) testing: trend toward increased preference
Mouse model of (POCD) [5]; Chronic vs Disease Controls, p=0.09, LSD post-hoc
  novel object preference, 24-hour (long term) testing: trend toward increased preference
